What all share (type): in vivo, Donryu rats
Assay [1] concerns tumor tissue. Nature of the assay: Change in blood flow in various tissues by continuous arterial injection (Doppler type blood flowmeter). The procedure: A 136B cells were transplanted to dorsa of feet of Donryu rats to form solid tumors. To each of the tumor-bearing rats, 0.5 mL of solution of Evans Blue (1.5%) in physiological saline was administered i.v. and then 2 μg of beraprost sodium was injected into common iliac artery which is the tumor-controlling artery. The blood vessel perneability-increasing effect was evaluated by comparing the amounts of the accumulated Evans Blue-albumin complex in the tissue, which is the index of the blood vessel permeability in the tumor tissue, of the beraprost sodium-administered group and of the non-administered group. As a result, it was observed that by administration of 2 μg of beraprost sodium, the blood vessel permeability was increased to about 3.4 times that of the non-administered group (P<0.01). The amount of the accumulated Evans Blue was spectrophotometrically quantified after extraction with formamide at 30° C. for 48 hours. Into common iliac artery which is the tumor-controlling artery of the tumor on the dorsum of foot of each of the tumor-bearing rats prepared in the same manner as in Examples 1 and 2, 0.3 mL of beraprost sodium solution (30 μg/mL) in middle-length fatty acid was arterially injected continuously for 1 minute. The changes in the blood flow in various tissues were measured by a Doppler type blood flowmeter. The rate of change was expressed in terms of % of the average during 10 minutes after the beginning of the arterial injection based on the average during several minutes before the arterial injection. […] This was the phenomenon brought about by the specific relaxation of the blood vessels in the tumor tissues.

Assay [2] deals with tumor tissue. The assay is described as follows: Permeability of Evans Blue in various tissues, beraprost sodium intravenously administered vs not administered. The settings on record: 20 μg injected into the tail vein; tumor-bearing rats; P<0.05. The procedure:
A 136B cells were transplanted to dorsa of feet of Donryu rats to form solid tumors. To each of the tumor-bearing rats, 0.5 mL of solution of Evans Blue (1.5%) in physiological saline was administered i.v. and then 2 μg of beraprost sodium was injected into common iliac artery which is the tumor-controlling artery. The blood vessel perneability-increasing effect was evaluated by comparing the amounts of the accumulated Evans Blue-albumin complex in the tissue, which is the index of the blood vessel permeability in the tumor tissue, of the beraprost sodium-administered group and of the non-administered group. As a result, it was observed that by administration of 2 μg of beraprost sodium, the blood vessel permeability was increased to about 3.4 times that of the non-administered group (P<0.01). The amount of the accumulated Evans Blue was spectrophotometrically quantified after extraction with formamide at 30° C. for 48 hours. […] The blood vessel permeability-increasing effect was evaluated by comparing the amounts of the accumulated Evans Blue-albumin complex in the tissues of the beraprost sodium-administered group and of the non-administered group. […] The amount of the accumulated Evans Blue was quantified in the same manner as in Example 1.

In assay [3] the test system is tumor tissue. The assay is described as follows: Permeability of Evans Blue in tumor tissue, beraprost sodium arterially administered vs not administered. The settings on record: 2 μg injected into common iliac artery; A 136B solid tumor on dorsum of foot; P<0.01. The procedure:
A 136B cells were transplanted to dorsa of feet of Donryu rats to form solid tumors. To each of the tumor-bearing rats, 0.5 mL of solution of Evans Blue (1.5%) in physiological saline was administered i.v. and then 2 μg of beraprost sodium was injected into common iliac artery which is the tumor-controlling artery. The blood vessel perneability-increasing effect was evaluated by comparing the amounts of the accumulated Evans Blue-albumin complex in the tissue, which is the index of the blood vessel permeability in the tumor tissue, of the beraprost sodium-administered group and of the non-administered group. As a result, it was observed that by administration of 2 μg of beraprost sodium, the blood vessel permeability was increased to about 3.4 times that of the non-administered group (P<0.01). The amount of the accumulated Evans Blue was spectrophotometrically quantified after extraction with formamide at 30° C. for 48 hours.

Assay [4] concerns tumor tissue. Nature of the assay: Change in blood flow in various tissues after 0.2, 2 or 20 μg beraprost sodium (Doppler type blood flowmeter). Conditions: 0.2, 2 or 20 μg injected. The procedure:
A 136B cells were transplanted to dorsa of feet of Donryu rats to form solid tumors. To each of the tumor-bearing rats, 0.5 mL of solution of Evans Blue (1.5%) in physiological saline was administered i.v. and then 2 μg of beraprost sodium was injected into common iliac artery which is the tumor-controlling artery. The blood vessel perneability-increasing effect was evaluated by comparing the amounts of the accumulated Evans Blue-albumin complex in the tissue, which is the index of the blood vessel permeability in the tumor tissue, of the beraprost sodium-administered group and of the non-administered group. As a result, it was observed that by administration of 2 μg of beraprost sodium, the blood vessel permeability was increased to about 3.4 times that of the non-administered group (P<0.01). The amount of the accumulated Evans Blue was spectrophotometrically quantified after extraction with formamide at 30° C. for 48 hours. Into common iliac artery which is the tumor-controlling artery of the tumor on the dorsum of foot of each of the tumor-bearing rats prepared in the same manner as in Examples 1 to 3, 0.2, 2, or 20 μg of beraprost sodium was arterially injected and the change in the blood flow was measured by a Doppler type blood flowmeter. […]

Regarding `CC#CCC(C)[C@H](O)/C=C/C1[C@H](O)C[C@@H]2Oc3c(CCCC(=O)O)cccc3[C@H]12` (stereo partly shown) [beraprost sodium], in assay [1] (continuous arterial injection at 10 μg/kg/min, P<0.05), the “blood flow in the tumor compared with kidney” value is reported as “significantly more decreased than in kidney”. Further, the “blood flow in the tumor compared with kidney and liver” value in assay [1] (continuous arterial injection at 17 μg/kg/min, tumor vs. liver P<0.05, tumor vs. kidney P<0.01) is “significantly more decreased than in kidney and in liver”. The “blood flow in the tumor tissue” value in assay [1] (continuous arterial injection for 1 minute into common iliac artery, average during 10 minutes after start vs before) is recorded as “sharply decreased dose-dependently”. Moreover, in assay [2], the “blood vessel permeability (accumulated Evans Blue-albumin complex in the tissues)” value is recorded as “about 1.5 times that of the non-administered group”. Moreover, in assay [3], the “blood vessel permeability (accumulated Evans Blue-albumin complex in tumor tissue)” value was “about 3.4 times that of the non-administered group”. Moreover, the “decrease in the blood flow in normal tissue organs such as liver and kidney” value in assay [4] was “not observed”. Besides, in assay [4] (average during 10 minutes after start vs before), the “blood flow in the tumor” value is “Sharp decrease”.

The record behind these values is patent publication US20030153603A1, “Agent for enhancing accumulation of drugs in tumor tissues” (Toray Industries, Inc., priority 1999, published 2003).
